# Values joined by “and” are separate entries in the source; they are usually repeats but may differ in a detail not shown here. Equal values may be shown once.
# How the values were obtained:
# [1] = target: T1, hCB1 (Homo sapiens, UniProt P21554); assay: bioSensAll ebBRET signaling profiling, hCB1; type: cell-based; set-up: host or cells: HEK293SL cells, transient PEI transfection; conditions: for Gi1 hCB1 / GoB hCB1: single replicate values, FigS6a; for Emax [95% CI]: normalized to CP-55,940; for EC50: read-out: EC50 [95% CI]
# T1 sequence (P21554 whole entry): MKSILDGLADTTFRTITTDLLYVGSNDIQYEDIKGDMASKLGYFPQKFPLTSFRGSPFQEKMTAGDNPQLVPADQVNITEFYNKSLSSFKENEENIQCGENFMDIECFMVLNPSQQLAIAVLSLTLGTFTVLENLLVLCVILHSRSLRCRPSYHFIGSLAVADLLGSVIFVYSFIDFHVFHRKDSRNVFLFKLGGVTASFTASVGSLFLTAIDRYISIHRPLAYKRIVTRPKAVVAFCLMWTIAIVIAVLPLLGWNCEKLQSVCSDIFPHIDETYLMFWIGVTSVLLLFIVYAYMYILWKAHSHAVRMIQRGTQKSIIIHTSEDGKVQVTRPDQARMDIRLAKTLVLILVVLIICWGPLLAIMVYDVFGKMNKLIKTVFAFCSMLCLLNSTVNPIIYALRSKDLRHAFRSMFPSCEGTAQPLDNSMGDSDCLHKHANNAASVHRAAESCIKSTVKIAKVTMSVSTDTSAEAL
# [2] = target: CB1 (rCB1) (Rattus norvegicus, UniProt P20272); assay: Radioligand competition binding, [3H]-CP-55,940, rat brain membranes
# Sequence of CB1 (rCB1) (P20272 whole entry): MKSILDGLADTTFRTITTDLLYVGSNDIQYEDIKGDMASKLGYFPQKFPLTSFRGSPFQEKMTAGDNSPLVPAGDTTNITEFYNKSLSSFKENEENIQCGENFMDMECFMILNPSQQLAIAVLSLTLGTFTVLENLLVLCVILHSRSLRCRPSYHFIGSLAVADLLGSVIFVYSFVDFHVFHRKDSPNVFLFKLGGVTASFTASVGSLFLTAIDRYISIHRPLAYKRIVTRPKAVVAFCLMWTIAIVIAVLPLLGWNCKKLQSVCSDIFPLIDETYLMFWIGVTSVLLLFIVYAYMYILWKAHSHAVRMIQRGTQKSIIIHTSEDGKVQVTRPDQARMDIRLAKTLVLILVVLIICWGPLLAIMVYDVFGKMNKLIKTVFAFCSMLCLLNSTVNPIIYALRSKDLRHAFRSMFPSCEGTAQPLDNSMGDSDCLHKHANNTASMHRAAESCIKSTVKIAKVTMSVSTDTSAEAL
# [3] = target: T1, hCB1; assay: Tango β-arrestin-2 recruitment, HTLA cells, CB1R; type: cell-based; set-up: expressed in transfected cells; host or cells: HTLA cells (gift of R. Axel), transient transfection
# [4] = target: hCB2 (Homo sapiens, UniProt P34972); assay: TRUPATH BRET2 GoA dissociation, HEK293T; type: cell-based; set-up: expressed in transfected cells; host or cells: HEK293T cells (ATCC: CRL-3216), transient co-transfection; conditions: for functional response, concentration-response point (FigS7e, normalized): Log[drug], replicate columns
# Sequence of hCB2 (P34972 whole entry): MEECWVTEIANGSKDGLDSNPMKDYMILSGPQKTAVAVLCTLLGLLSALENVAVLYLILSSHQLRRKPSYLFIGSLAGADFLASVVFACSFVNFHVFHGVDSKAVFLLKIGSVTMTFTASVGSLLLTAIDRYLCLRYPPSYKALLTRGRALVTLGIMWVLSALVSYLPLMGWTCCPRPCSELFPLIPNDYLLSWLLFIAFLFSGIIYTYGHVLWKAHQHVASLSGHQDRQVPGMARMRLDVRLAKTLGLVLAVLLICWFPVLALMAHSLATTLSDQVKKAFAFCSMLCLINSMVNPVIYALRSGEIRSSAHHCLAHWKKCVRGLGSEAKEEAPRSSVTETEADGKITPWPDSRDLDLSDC
smiles,measurement,setting,value
COC(=O)[C@@H]1[C@@H]2CCC[C@@H]2CN1C(=O)c1cc(C)n(-c2cccc(C(F)(F)F)c2)n1 [‘6439],Gi1 hCB1,[1]; Log [Compound] (M) -11.0177,-0.651
same,GoB hCB1,[1]; Log [Compound] (M) -11.0177,-1.557
same,Gi1 hCB1,[1]; Log [Compound] (M) -11.4949,-0.6201
same,GoB hCB1,[1]; Log [Compound] (M) -11.4949,1.626
same,Gi1 hCB1,[1]; Log [Compound] (M) -11.9208,-0.3581
same,GoB hCB1,[1]; Log [Compound] (M) -11.9208,-0.04642
same,Gi1 hCB1,[1]; Log [Compound] (M) -12.3979,0.9369
same,GoB hCB1,[1]; Log [Compound] (M) -12.3979,0.02551
same,Gi1 hCB1,[1]; Log [Compound] (M) -12.8861,1.631
same,GoB hCB1,[1]; Log [Compound] (M) -12.8861,1.572
same,Gi1 hCB1,[1]; Log [Compound] (M) -13,-0.9439 and 1.0911
same,GoB hCB1,[1]; Log [Compound] (M) -13,-0.55 and -0.478
same,pEC50 [95% CI],[1]; hCB1 Gi1,7.2 [7.1 – 7.2]
same,Emax [95% CI],[1]; hCB1 Gi1,95 [93 – 96]
same,pEC50 [95% CI],[1]; hCB1 GoB,7.2 [7.2 – 7.3]
same,Emax [95% CI],[1]; hCB1 GoB,100 [99 – 101]
same,pEC50 [95% CI],[1]; hCB1 Gz,6.5 [5.9 – 7.0]
same,Emax [95% CI],[1]; hCB1 Gz,162 [125 –199]
same,EC50,[1]; hCB1 Gi1,0.0655 µM
same,EC50,[1]; hCB1 GoB,0.0609 µM
same,EC50,[1]; hCB1 Gz,0.339 µM
same,pKi [95% CI],[2]; rCB1,6.6 [6.4 – 6.8]
same,Ki,"[2]; read-out: Ki [95% CI], rCB1, [3H]-CP-55,940",0.251 µM
same,"response, replicate values of concentration-response curve (FigS7f)","[3]; Log[drug], M = -4.52",-10.8475 and 13.7559 and -1.3408 and 30.128 and 34.5335 and 23.984 and 49.6721 and 28.9692 and 37.5272
same,"response, replicate values of concentration-response curve (FigS7f)","[3]; Log[drug], M = -5",12.97 and -6.259 and -29.1004 and -18.7713 and 7.052 and 41.6727 and 31.5861 and -0.2412 and 17.8549 and 115.231 and 93.3593 and 69.1731
same,"response, replicate values of concentration-response curve (FigS7f)","[3]; Log[drug], M = -5.52",-14.7516 and -1.011 and 3.958 and 21.4628 and 26.9697 and -2.702 and -24.3795 and -8.092 and 23.1695 and 55.5034 and 99.9754 and 83.8088
same,"response at Log[drug], M -5.52 (FigS4e)","[3]; Log[drug], M = -5.52, individual replicates",41.0598 and 42.1112 and 37.5809 and 36.0059 and 27.2068 and 23.0093 and 28.7041 and 23.0465 and 29.4359 and 31.2692 and 37.5598 and 31.3786
same,"response, replicate values of concentration-response curve (FigS7f)","[3]; Log[drug], M = -6",-7.78 and 1.232 and -8.579 and 16.9776 and 8.83 and 54.3719 and -17.0743 and 6.68 and 7.903 and 46.3174 and 81.0931 and 82.3871
same,"response at Log[drug], M -6 (FigS4e)","[3]; Log[drug], M = -6, individual replicates",26.6779 and 28.882 and 31.009 and 30.2093 and 13.1731 and 19.3667 and 17.0092 and 18.0259 and 28.822 and 23.6752 and 23.7677 and 25.0376
same,"response, replicate values of concentration-response curve (FigS7f)","[3]; Log[drug], M = -6.52",6.949 and 23.0344 and 26.685 and -30.9662 and -12.5345 and 9.44 and -7.445 and 20.4415 and 28.8782 and 41.1229 and 58.9482 and 96.877
same,"response at Log[drug], M -6.52 (FigS4e)","[3]; Log[drug], M = -6.52, individual replicates",20.6989 and 18.775 and 18.227 and 14.6552 and 8.92 and 7.4713 and 4.648 and 5.829 and 9.707 and 10.7245 (2×) and 6.125
same,"response, replicate values of concentration-response curve (FigS7f)","[3]; Log[drug], M = -7",31.5144 and 45.4069 and -35.2101 and -37.1897 and 1.93 and 0.2842 and 7.478 and -20.5097 and -17.3775 and 49.0331 and 80.6374 and 65.8924
same,"response at Log[drug], M -7 (FigS4e)","[3]; Log[drug], M = -7, individual replicates",6.9232 and 8.043 and 10.8845 and 9.988 and 0.5556 and -1.865 and 0.4774 and 0.6189 and 2.467 and 3.148 and 2.635 and 4.207
same,"response, replicate values of concentration-response curve (FigS7f)","[3]; Log[drug], M = -7.52",-4.763 and -11.0123 and 28.1301 and -8.049 and -20.0319 and -11.1013 and -22.9649 and -19.4286 and 2.9819 and 44.3307 and 18.8869 and 45.9893
same,"response at Log[drug], M -7.52 (FigS4e)","[3]; Log[drug], M = -7.52, individual replicates",6.822 and 6.684 and 9.44 and 7.52 and -3.124 and -0.9675 and -2.021 and -2.681 and -0.3421 and -0.05622 and 2.349 and 1.533
same,"response at Log[drug], M -8 (FigS4e)","[3]; Log[drug], M = -8, individual replicates",5.884 and 9.216 and 9.707 and 9.61 and -1.035 and -0.111 and -1.31 and -2.509 and 0.4231 and 1.197 and 7.663 and 1.289
same,"response at Log[drug], M -8.52 (FigS4e)","[3]; Log[drug], M = -8.52, individual replicates",12.6416 and 8.6666 and 7.701 and 11.5559 and 0.09453 and -1.259 and 2.111 and -1.3123 and 0.08722 and 0.8217 and 1.887 and 4.054
same,"response at Log[drug], M -9 (FigS4e)","[3]; Log[drug], M = -9, individual replicates",6.15 and 10.745 and 10.5633 and 11.2546 and -2.544 and -0.8488 and 0.7085 and -0.4422 and 2.383 and 3.898 and 2.695 and 3.787
same,"response, replicate values of concentration-response curve (FigS7f)","[3]; Log[drug], M = -9.52",-11.8869 and 10.4349 and -26.9456 and -12.2027 and 18.9813 and -12.6008 and 11.5803
same,"response at Log[drug], M -9.52 (FigS4e)","[3]; Log[drug], M = -9.52, individual replicates",7.12 and 7.04 and 8.157 and 9.473 and -0.8081 and -1.207 and -0.4666 and -1.821 and 4.375 and 2.502 and 0.01377 and 0.5555
same,"response, replicate values of concentration-response curve (FigS7f)","[3]; Log[drug], M = -10",17.8121 and -5.27 and 8.977 and 22.6969 and 39.8414 and 41.3409 and 56.1992 and 5.841 and 17.8346 and -4.352 and 10.4482 and -28.6471
same,"response at Log[drug], M -10 (FigS4e)","[3]; Log[drug], M = -10, individual replicates",8.321 and 7.43 and 8.2855 and 10.5544 and 1.814 and -2.821 and -0.4869 and -0.1291 and 2.41 and 4.577 and 0.8034 and 1.18
same,"response at Log[drug], M -10.52 (FigS4e)","[3]; Log[drug], M = -10.52, individual replicates",8.25 and 8.706 and 9.026 and 10.1955 and -1.024 and 0.4442 and -0.6414 and 0.7573 and 1.648 and 0.8217 and 2.116 and 5.22
same,"response at Log[drug], M -11 (FigS4e)","[3]; Log[drug], M = -11, individual replicates",3.256 and 4.195 and 6.189 and 8.184 and 0.0864 and 0.615 and -0.08844 and -0.05998 and 3.273 and 3.861 and 4.338 and 1.74
same,"response at Log[drug], M -11.52 (FigS4e)","[3]; Log[drug], M = -11.52, individual replicates",5.192 and 4.514 and 4.754 and 3.593 and 1.237 and 0.5215 and -0.05998 and -1.081 and -0.5647 and 0.7391 and 0.6014 and 3.236
same,"response at Log[drug], M -12 (FigS4e)","[3]; Log[drug], M = -12, individual replicates",0.3534 and 0.1806 and 0.07866 and -0.6126 and -2.04 and 1.058 and -0.6333 and 1.615 and -1.51 and 0.6106 and 0.6473 and 0.2525
same,EC50,"[3]; hCB1, read-out: Tango ß-arrestin recruitment EC50",> 10 µM
same,EC50,[4],0.0971 µM
same,BRET2 + GoA Emax,"[4]; % of CP-55,940",81% [34 – 128]
same,"functional response, concentration-response point (FigS7e, normalized)",[4]; M = -5,12.9272 and 15.9912 and 13.3933 and 14.1917 and 9.02 and 8.9115 and 9.964 and 9.677 and 16.1327 and 18.1614 and 17.7797 and 17.4918
same,"functional response, concentration-response point (FigS7e, normalized)",[4]; M = -5.52,13.7946 and 14.1528 and 14.7009 and 15.5942 and 7.819 and 9.861 and 11.3112 and 10.248 and 13.5348 (2×) and 16.0255 and 15.2556
same,"functional response, concentration-response point (FigS7e, normalized)",[4]; M = -6,13.5098 and 11.3391 and 11.5247 and 10.1826 and 7.139 and 7.697 and 10.1371 and 9.4066 and 13.2838 and 11.7338 and 12.1556 and 10.2207
same,"functional response, concentration-response point (FigS7e, normalized)",[4]; M = -6.52,8.245 and 8.18 and 7.1316 and 8.582 and 5.652 and 4.45 and 4.542 and 4.824 and 8.731 and 6.786 and 7 and 7.151
same,"functional response, concentration-response point (FigS7e, normalized)",[4]; M = -7,3.477 and 2.251 and 1.336 and 1.824 and 2.04 and 2.129 and 1.242 and 0.8388 and 2.913 and 2.96 and 2.756 and 1.624
same,"functional response, concentration-response point (FigS7e, normalized)",[4]; M = -7.52,0.5378 and 0.2401 and 2.191 and 0.8701 and 1.326 and 0.4303 and 0.552 and 0.1165 and 1.032 and 0.8075 and 1.393 and 1.507
same,"functional response, concentration-response point (FigS7e, normalized)",[4]; M = -8,0.2919 and 0.01139 and 0.3868 and 0.4645 and -0.1973 and 0.3762 and 0.9064 and 1.539 and 0.3891 and 0.4427 and 0.6703 and 0.6301
same,"functional response, concentration-response point (FigS7e, normalized)",[4]; M = -8.52,-0.3369 and -0.3039 and -0.3274 and -0.06361 and -0.07458 and 0.1558 and -0.006646 and 0.09378 and 0.05117 and 0.1425 and 0.3472 and 0.4422
same,"functional response, concentration-response point (FigS7e, normalized)",[4]; M = -12,0.6997 and -0.1013 and -0.3699 and -0.2285
